This is an account of results in article PMC8776228 (International Journal of Molecular Sciences, 2022).

Values after ≈ are worked out from the molar mass of the structure shown. Values joined by “and” are separate entries in the source; they are usually repeats but may differ in a detail not shown here. Identical values can stand only once. Like-named read-outs stand apart in the source and are kept apart here. Bounds are passed on as bounds.

Experiment [1] deals with M. tuberculosis H37Rv. The experiment in a line: microbe, parasite or virus in culture. In kind it is cell-based. Conditions: Mycobacterium tuberculosis.
Experiment [2] deals with T1, M. smegmatis DprE1 (Mycolicibacterium smegmatis, UniProt A0R607). The experiment in a line: biochemical. Also on record: species or system Mycobacterium smegmatis.
The test system of experiment [3] is M. abscessus. The conditions noted are these: cited from earlier work.
Experiment [4] has as its target T2, M. smegmatis DprE1 C394A (Mycolicibacterium smegmatis, UniProt A0R607, C386A).
Experiment [5] addresses T3, M. smegmatis DprE1 C394S (Mycolicibacterium smegmatis, UniProt A0R607, C386S). The experiment in a line: biochemical.
Experiment [6] relates to M. tuberculosis H37Rv.
Experiment [7] relates to M. smegmatis mc^2155-pJV53H DprE1 L282F.
For experiment [8], the system named is M. bovis. Conditions: cited from earlier work.
The test system of experiment [9] is M. avium. The conditions noted are these: cited from earlier work.
Experiment [10] deals with T3, M. smegmatis DprE1 C394S.
In experiment [11] the test system is M. smegmatis mc^2155-pJV53H DprE1 L282V.
Experiment [12] concerns M. smegmatis mc^2155. Put plainly: microbe, parasite or virus in culture. It counts as cell-based, Mycobacterium smegmatis. Conditions: Mycolicibacterium smegmatis.
Experiment [13] addresses M. smegmatis DprE1 L282V (Mycolicibacterium smegmatis, UniProt A0R607, L274V/L282V). Put plainly: biochemical.
For experiment [14], the system named is M. tuberculosis. The conditions noted are these: cited from earlier work.
For experiment [15], the system named is M. tuberculosis NTB1.
The subject of experiment [16] is M. kansasii. Conditions: cited from earlier work.
Experiment [17] deals with M. tuberculosis H37Rv. The source holds these as a separate data set.
The test system of experiment [18] is M. smegmatis. The conditions noted are these: cited from earlier work.
The test system of experiment [19] is M. smegmatis mc^2155.
Experiment [20] concerns the target M. smegmatis DprE1 L282F (Mycolicibacterium smegmatis, UniProt A0R607, L274F/L282F). Put plainly: biochemical.
For experiment [21], the target named is T2, M. smegmatis DprE1 C394A. The experiment in a line: biochemical.
Experiment [22] deals with T1, M. smegmatis DprE1. Conditions: cited from earlier work.

On to `NNC(=O)c1ccncc1` [INH, isoniazid], for which, in experiment [1] (read-out: MIC INH), the MIC is 0.025 µg/mL (≈ 0.182 µM).

A word on the IC50: it is the concentration that gives 50% inhibition. In the case of Ivermectin, in experiment [2] (read-out: IC50), the 50% inhibitory concentration (IC50) stood at 13.2 ± 3.3 µM.

`CO[C@H]1C[C@H](O[C@@H]2/C(C)=C/C[C@@H]3C[C@@H](C[C@]4(CC[C@H](C)[C@@H](C5CCCCC5)O4)O3)OC(=O)[C@@H]3C=C(C)/C(=N/O)[C@H]4OC/C(=C\C=C\[C@@H]2C)[C@]43O)O[C@@H](C)[C@@H]1O` [Selamectin]: the MIC is more than 32 µg/mL in [3]; 2 to 4 µg/mL in experiment [8]; 16 µg/mL (≈ 20.8 µM) in [9]; 4 µg/mL (≈ 5.19 µM) in experiment [12] (MC^2155, read-out: MIC SEL); 2 to 4 µg/mL in experiment [14]; 0.5 µg/mL (≈ 0.649 µM) in [16]. Also, the values for the MIC in [1] (read-out: MIC SEL) and in experiment [18] were 4 µg/mL (≈ 5.19 µM) and 2 to 4 µg/mL, respectively. Besides, the “IC50 compared to the wild type enzyme” value in [4] is given as “in the same range”; in experiment [10], “slightly higher”. Moreover, the IC50 in [5] is 12.1 ± 1.2 µM; in [13], 50.6 ± 9.2 µM; in experiment [2] (IC50), ~2.6 µM and 2.6 µM; in experiment [20], 1 ± 0.7 µM; in experiment [21] it was 3.9 ± 1 µM. In addition, the “^14C uptake” value in experiment [6] and in experiment [19] was “general decrease” throughout. For the same compound, the “changes in lipid composition associated with inhibition of arabinan synthesis” value in [6] and in [19] was “did not result in significant changes” throughout. For the same compound, the “change in susceptibility compared to wild-type M. smegmatis (MIC)” value in experiment [7] and in [11] was “no changes in their susceptibilities” throughout. Moreover, the “day at which the limit of detection (1-log CFU/mL) was reached” value in [15] was determined as 11 day; in [17], 22 day. In experiment [15], the “time–kill activity against NTB1 compared to H37Rv” value is reported as “more active”.

In turn, `CO/N=C1\C[C@]2(C[C@@H]3C[C@@H](C/C=C(\C)C[C@@H](C)/C=C/C=C4\CO[C@@H]5[C@H](O)C(C)=C[C@@H](C(=O)O3)[C@]45O)O2)O[C@H](/C(C)=C/C(C)C)[C@H]1C` [Moxidectin] returned a 50% inhibitory concentration (IC50) in experiment [2] of 6.1 ± 0.9 µM.

For the compound `C[C@H]1COC2(CCN(c3nc(=O)c4cc(C(F)(F)F)cc([N+](=O)[O-])c4s3)CC2)O1` [BTZ043], the MIC in experiment [12] (MC^2155, read-out: MIC BTZ-043) is 0.008 µg/mL (≈ 0.0185 µM); in experiment [1] (read-out: MIC BTZ043) it was 0.001 µg/mL (≈ 0.00232 µM). Also, the IC50 in [22] was 0.004 µM.

As for Milbemycin oxime, the IC50 in experiment [2] (read-out: IC50) was 25.5 ± 5.6 µM.
